Test results: PMC2764853, “Versatile Assays for High Throughput Screening for Activators or Inhibitors of Intracellular Proteases and Their Cellular Regulators” (PLoS ONE, 2009)
Residues, ends and D or L forms follow the SMILES beside them. *: point of attachment. Cbz = O=C(OCc1ccccc1)*; CH2F = FC*

Assays:
[1] = test system: Caspase8 activated with FADD + Fas; test: Yeast cleavable-reporter β-galactosidase assay, Fas/FADD/Caspase-8 three-component system (384 well); format: cell-based, human; details: for selectivity for Fas/FADD/Caspase-8 over Asc/Caspase-1 in yeast reporter assays: 384 well, various concentrations, 2–4 days at 30°C, OD620, counter-strains lacZ, Asc/Caspase-1, empty vector
Description: (§1) Figure 5 Validation of yeast-based assay using pharmacological inhibitor of Caspases. (A) Caspase-1, single component assay. EGY48 yeast cells expressing S1 substrate (TEF-Fas-d-S1-TA) and high levels of Caspase-1 (TEF-HA-Caspase1-FLAG) were incubated for 3 days in selection media (SD/X-gal) with the indicated concentrations of z-VAD-fmk in DMSO (•) or DMSO only (○), using 384-well plates. (B) Asc/Caspase-1 two-component system. EGY48 yeast cells expressing S1 substrate (TEF-Fas-d-S1-TA) a low level of pro-Caspase-1 (ΔTEF1-Caspase1-FLAG) and high levels of Asc (TEF-HA-Asc) were incubated for 3 days in the selection media (SD/X-gal) in 384 well plates with the indicated concentrations of calpeptin (▴) or z-VAD-fmk (•) or an equivalent volume of DMSO (○). (C) Fas/FADD/Caspase8 three-component system. EGY48 yeast cells expressing S8 substrate (TEF-S8-TA), low levels of pro-Caspase-8 CYC1-Caspase-8-HA, with a small amount of FADD (from ΔADH1 promoter) and a large amount of Fas (from ADH promoter), were incubated in selection media (SD/X-gal) with the indicated concentrations of calpeptin (▴) or z-VAD-fmk (•), or equivalent volume of DMSO (○), in 384-well plates for 3–4 days. For (A–C), relative absorbance at 620 nm was measured (mean ± std dev; n = 3−5 independent experiments). (* indicates p<0.001).
Figure 6 HTS Implementation of yeast-based, 3-component Caspase assays. (A) Validation of HTS assay for NLRP1-Asc-Caspase-1 system. Yeast cells (18 µl, typically at ≈2×10^5 cells/well) containing NLRP1ΔLRR/Asc/Caspase-1 were plated into wells of 384 well plates in media containing 1% galactose, 0.2% raffinose. Wells also contained 18 µL selection media with (blue squares) or without (purple diamonds) X-gal substrate (400 µg/mL final Concentration) plus 10% DMSO (4 µl) (to simulate compound addition). The plates were incubated for 72 hrs at 30°C and the OD620 was recorded. Values (mean±std dev) were calculated for the assay maximum and minimum. The Z' factor was calculated as described. (B) Example of library screening plate for NLRP1-Asc-Caspase-1. Yeast cells (typically at ≈2×10^5 cells/well) containing NLRP1/Asc/Caspase-1 were plated in 384 well plates in Selection Media, without (purple triangles) or with (all other wells) 400 µg/ml X-gal (final concentration). Compounds in DMSO (∼10 µM final) had been pre-added to wells (diamonds). The plates were incubated for 72 hrs at 30°C and the OD620 was recorded, “Hits” were defined by >50% reduction (as shown in green diamonds). […] Yeast cells containing Fas/FADD/Caspase-8 were cultured in 384 well plates as above with (blue squares) or without (purple diamonds) X-gal substrate, the plates were incubated for 72 hrs at 30°C and analyzed as above. […] Plates were incubated for 48 hrs at 30°C and OD620 values recorded. […]

Caspases = test: Yeast-based Caspase-dependent lacZ reporter gene assays, 384 well format (summary over assays); format: cell-based, human
Description: We further validated the 384 well assay format, using zVAD-fmk, a peptidyl inhibitor with broad-spectrum activity against animal Caspases. For some experiments, a Calpain inhibitor was employed in side-by-side experiments as a control. The broad-spectrum Caspase inhibitor zVAD-fmk inhibited β-galactosidase activity in a dose-dependent fashion, with the concentration required for achieving 50% inhibition ranging from ∼1–10 µM in these assays, which were performed in 384 well format (Figure 5) (Table S1). […] These experiments verify that the 384 well version of the yeast-based Caspase-dependent reporter gene assay faithfully indicates the activity of an inhibitory compound, thus fulfilling one of the prerequisites for developing HTS assays.
Figure 5 Validation of yeast-based assay using pharmacological inhibitor of Caspases. (A) Caspase-1, single component assay. EGY48 yeast cells expressing S1 substrate (TEF-Fas-d-S1-TA) and high levels of Caspase-1 (TEF-HA-Caspase1-FLAG) were incubated for 3 days in selection media (SD/X-gal) with the indicated concentrations of z-VAD-fmk in DMSO (•) or DMSO only (○), using 384-well plates. […] For (A–C), relative absorbance at 620 nm was measured (mean ± std dev; n = 3−5 independent experiments). […]
(§2) For caspase assays, the assays were performed in a total volume of 40 µl in triplicate. […] Absorbance at 620 nm was measured 2–3 days after culture at 30°C.

[2] = test system: NLRP1/ASC/Caspase-1 proteolytic network; test: Yeast cleavable-reporter β-galactosidase assay, NLRP1/ASC/Caspase-1 three-component system (384 well); format: cell-based, human; details: 100 µM zVAD final, 2×10^5 cells/well, 48 hours, 400 µg/ml X-gal; Assay Max (DMSO) 0.78
Description: For the Fas/FADD/Caspase-8 and the NLRP1/Asc/Caspase-1 assays, EGY48 yeast containing the desired plasmids were streaked onto SD plates (6.8 g Yeast Nitrogen Base w/o amino acids, 20 mg arginine, 50 mg threonine, 30 mg isoleucine, 60 mg phenylalanine, 20 mg valine) containing agar (1.7%), supplemented with 2% α-D-glucose and 50 µg/mL leucine. The plates were incubated at 30°C for 48 hrs and a colony was picked and transferred to a 14 ml polypropylene tube containing 2 ml of SD media broth supplemented with α-D-glucose and leucine as above and grown at 30°C for 16–24 hrs with shaking. Then, 1 ml of the overnight culture was transferred into 20 mls of growth media in a 500 ml flask and shaken at 30°C for 16–24 hrs. […] After 48 hours, the plates were brought to room temperature, the breathable film removed and replaced with the transparent polyester tape seal, and the plates were mixed, pelleted briefly and read using a Beckman DTX 880, recording absorbance at 620 nm.
Supplementary file pone.0007655.s020.pdf: Figure S18 Determination of Z' scores for NLRP1(NALP1) and Fas(CD95) 3-component yeast-based HTS assays using caspase inhibitor zVAD-fmk. […] The Z' scores were determined by comparison of the DMSO-treated samples with the zVAD-treated samples. […]

Caspase6 = biological target: T1, Caspase6 (Homo sapiens, UniProt P55212); test: Yeast cleavable-reporter β-galactosidase assay, Caspase-6 (384 well); format: cell-based; details: yeast expressing Caspase6; 384 well β-galactosidase activity assay; read-out: IC50 for z-VAD inhibition of Caspases
T1 construct: We expressed full-length Caspases-1, 2, 3, 4, 5, 6, 7, and 9 from high copy-number plasmids; HA (N); expressed in transfected cells; host or cells: Saccharomyces cerevisiae (EGY48)
T1 sequence (P55212 24-179 limits assumed): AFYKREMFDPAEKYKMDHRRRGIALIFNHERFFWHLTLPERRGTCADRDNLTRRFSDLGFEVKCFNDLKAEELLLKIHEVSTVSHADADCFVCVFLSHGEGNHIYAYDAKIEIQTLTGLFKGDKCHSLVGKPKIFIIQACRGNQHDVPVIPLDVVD
T1 sequence (P55212 194-293 limits assumed): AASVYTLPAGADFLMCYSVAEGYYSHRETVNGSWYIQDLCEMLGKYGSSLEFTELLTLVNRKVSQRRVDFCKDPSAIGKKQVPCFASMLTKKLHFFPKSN
Description: (§3) For caspase assays, the assays were performed in a total volume of 40 µl in triplicate. First, 20 µl of liquid selection media containing X-gal and a series of concentrations of reagents such as z-VAD was dispensed into each well of 384-well plates. Next, confluent yeast cells expressing various Caspases and cleavable substrates were collected, washed with water, and suspended in selection media of the same volume as the culture media. The yeast suspension was diluted to 1∶5-10 (v:v) with the selection media, and 20 µl aliquots were added to the 384-well plates. For ATG4B assays, yeast cells expressing ATG4B and LC3 fused-transcription factor were cultured overnight in standard growth medium, then the yeast cells were diluted in selection medium (SD medium containing 1% galactose, 0.2% raffinose, BU salts, and 100 µg/ml X-gal) at 10^4/ml and dispensed 100 µl into each well of 384-well plates. Absorbance at 620 nm was measured 2–3 days after culture at 30°C.
(§4) Supplementary file pone.0007655.s002.pdf: Table S1 Determination of IC50 values for zVAD-fmk inhibition of Caspases in yeast. […] The compound was titrated into assays at various concentrations and percentage inhibition was determined. IC50 values were determined, using PRIZM software for analysis. […]

[3] = biological target: Caspase10 activated with FADD; test: Yeast cleavable-reporter β-galactosidase assay, FADD/Caspase-10 (384 well); format: cell-based, human; details: 384 well β-galactosidase activity assay, read-out: IC50 for z-VAD inhibition of Caspases
Description: as §3, §4

Caspase1 = biological target: T2, Caspase1 (Homo sapiens, UniProt P29466); test: Yeast cleavable-reporter β-galactosidase assay, Caspase-1 single component (384 well); format: cell-based; details: yeast expressing Caspase1 alone at high levels; 384 well β-galactosidase activity assay; read-out: IC50 for z-VAD inhibition of Caspases
T2 construct: We expressed full-length Caspases-1, 2, 3, 4, 5, 6, 7, and 9 from high copy-number plasmids; HA (N); FLAG (C); expressed in transfected cells; host or cells: Saccharomyces cerevisiae EGY48
T2 sequence (P29466 120-297 limits assumed): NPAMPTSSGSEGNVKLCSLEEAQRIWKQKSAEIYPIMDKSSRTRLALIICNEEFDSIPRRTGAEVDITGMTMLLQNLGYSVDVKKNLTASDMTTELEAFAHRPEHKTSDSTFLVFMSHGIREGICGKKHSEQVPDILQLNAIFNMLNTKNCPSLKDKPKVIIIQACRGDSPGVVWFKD
T2 sequence (P29466 317-404 limits assumed): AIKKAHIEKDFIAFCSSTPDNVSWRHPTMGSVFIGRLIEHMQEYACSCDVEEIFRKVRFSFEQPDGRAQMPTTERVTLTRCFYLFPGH
Description: as §1, with “EGY48 yeast cells expressing S8 substrate (TEF-S8-TA), low levels of pro-Caspase-8 CYC1-Caspase-8-HA, with a small amount of FADD (from ΔADH1 promoter) and a large amount of Fas (from ADH promoter), were incubated in selection media (SD/X-gal) with the indicated concentrations of calpeptin (▴) or z-VAD-fmk (•), or equivalent volume of DMSO (○), in 384-well plates for 3–4 days.” left out, “(* indicates p<0.001).” left out
as §2, §4

[4] = biological target: Caspase1 activated with Asc; test: Yeast cleavable-reporter β-galactosidase assay, Asc/Caspase-1 two-component system (384 well); format: cell-based, human; details: 384 well β-galactosidase activity assay, read-out: IC50 for z-VAD inhibition of Caspases
Description: as §1, with “EGY48 yeast cells expressing S8 substrate (TEF-S8-TA), low levels of pro-Caspase-8 CYC1-Caspase-8-HA, with a small amount of FADD (from ΔADH1 promoter) and a large amount of Fas (from ADH promoter), were incubated in selection media (SD/X-gal) with the indicated concentrations of calpeptin (▴) or z-VAD-fmk (•), or equivalent volume of DMSO (○), in 384-well plates for 3–4 days.” left out, “(* indicates p<0.001).” left out
For caspase assays, the assays were performed in a total volume of 40 µl in triplicate. […] Absorbance at 620 nm was measured 2–3 days after culture at 30°C. […]
as §4

[5] = biological target: Caspase9 activated with Apaf*; test: Yeast cleavable-reporter β-galactosidase assay, Apaf*/Caspase-9 (384 well); format: cell-based, human; details: 384 well β-galactosidase activity assay, read-out: IC50 for z-VAD inhibition of Caspases
Description: as §3, §4

Compound: c1ccc2c(c1)[I+]c1ccccc1-2 [CID-3101]
- selectivity for Fas/FADD/Caspase-8 over Asc/Caspase-1 in yeast reporter assays [1]: selective inhibition of Fas-FADD-Caspase-8

Compound: C[n+]1cc2c3c(ccc2c2ccc4cc5c(cc4c21)OCO5)OCO3 [CID-5154]
- selectivity for Fas/FADD/Caspase-8 over Asc/Caspase-1 in yeast reporter assays [1]: selective inhibition of Fas-FADD-Caspase-8

Compound: CCCC[C@@H](C=O)NC(=O)[C@H](CC(C)C)NC(=O)OCc1ccccc1 [Calpain inhibitor, calpeptin]
- suppression of activation of the lacZ reporter gene (Caspases; control compound side-by-side with zVAD-fmk): did not suppress activation of the lacZ reporter gene

Compound: COC(=O)C[C@H](NC(=O)[C@H](C)NC(=O)[C@@H](NC(=O)OCc1ccccc1)C(C)C)C(=O)CF [zVAD-fmk] (Cbz-Val-Ala-Asp(OMe)-CH2F)
- IC50 (Caspases; range over the yeast Caspase assays, dose-dependent, read-out: concentration required for achieving 50% inhibition of β-galactosidase activity): 1 to 10 µM
- Assay Min (zVAD), absorbance OD620 [2]: 0.19
- IC50 (Caspase6): 6.78 µM
- IC50 [3]: 9.52 µM
- IC50 (Caspase1): 3.07 µM
- IC50 [4]: 1 µM
- Assay Min (zVAD), absorbance OD620 ([1]; 100 µM zVAD final, 2×10^5 cells/well, 48 hours, 400 µg/ml X-gal, Assay Max (DMSO) 0.56): 0.20
- IC50 ([1]; yeast, Caspase8 activated with FADD + Fas, 384 well β-galactosidase activity assay, read-out: IC50 for z-VAD inhibition of Caspases): 5.42 µM
- IC50 [5]: 10.7 µM
